This is an account of results in US6734301B2, “2,3,4,5-Tetrahydro-1H-[1,4]diazepino[1,7-a]indole compounds” (Pharmacia & Upjohn Company, priority 2000, dated 2004).

By melting point is commonly meant the temperature, or range, at which the solid turns liquid.

Where a name gives a salt, the structure may show the parent alone.

Regarding `O=Cc1c2n(c3cc(Br)ccc13)CCNCC2`, the melting point fell in the range of 186 to 188 °C.

`CN1CCc2cc3ccccc3n2CC1` registered a melting point of 59 to 60 °C.

For the compound `CCN1CCc2cc3ccccc3n2CC1`, the melting point lay in the range of 44 to 46 °C.

In turn, `NCCc1c2n(c3ccccc13)CCNCC2` had a melting point of 77 to 80 °C.

The compound `COc1ccc(NC(=O)C(=O)c2c3n(c4ccccc24)CCNCC3)cc1` registered a melting point of 177 to 180 °C.

For the compound `COc1ccc(NC(=O)C(=O)c2c3n(c4ccccc24)CCNCC3)cc1Cl`, the melting point was in the range of 221 to 223 °C.

Turning to `O=C(Nc1ccccc1)C(=O)c1c2n(c3ccccc13)CCNCC2`, the melting point fell in the range of 157 to 160 °C.

`O=Cc1c2n(c3ccccc13)CCNCC2` yielded a melting point of 167 to 168 °C.

In the case of `NC(=O)C(=O)c1c2n(c3ccccc13)CCNCC2`, the melting point was 214 to 215 °C.

For `O=C(c1c2n(c3ccccc13)CCNCC2)C(F)(F)F`, the melting point fell in the range of 131 to 133 °C.

`O=C(Nc1ccc(F)cc1F)C(=O)c1c2n(c3ccccc13)CCNCC2`: the melting point was in the range of 184.5 to 185.5 °C.

In turn, `N#Cc1c2n(c3ccccc13)CCNCC2` yielded a melting point of 161 to 164 °C.

In the case of `CCCN1CCc2cc3ccccc3n2CC1` (as salt: hydrochloride), the melting point lay in the range of 257 to 259 °C.

For the compound `Brc1ccc2cc3n(c2c1)CCNCC3` (as salt: hydrochloride), the melting point fell in the range of 292 to 295 °C.

Turning to `Clc1c2n(c3ccccc13)CCNCC2` (as salt: hydrochloride), the melting point is more than 250 °C.

Consider `CC(C)(C)OC(=O)N1CCc2cc3ccccc3n2CC1` [Example 51, tert-butyl 1,2,4,5-tetrahydro-3H-[1,4]diazepino[1,7-a]indole-3-carboxylate], for which the melting point was in the range of 129 to 132 °C.

Compound `O=[N+]([O-])/C=C/c1c2n(c3ccccc13)CCNCC2` [Example 52, 11-[(E)-2-nitroethenyl]-2,3,4,5-tetrahydro-1H-[1,4]diazepino[1,7-a]indole] showed a melting point of 225 to 226 °C.
